Legend:
[1] = tested on: hospital S. aureus (MRSA); assay: MIC, hospital S. aureus; type: cell-based, Staphylococcus aureus; details: all evaluated hospital S. aureus
Protocol: The antimicrobial activity of the compounds was tested on Gram-positive bacteria (Staphylococcus aureus NCTC 4163, Staphylococcus aureus ATCC 25923, Staphylococcus aureus ATCC 6538, Staphylococcus aureus ATCC 29213, Staphylococcus epidermidis ATCC 12228, Staphylococcus epidermidis ATCC 35984), Gram-negative rods (Escherichia coli ATCC 10538, Escherichia coli ATCC 25922, Pseudomonas aeruginosa ATCC 15442, Pseudomonas aeruginosa ATCC 27863) and yeasts (Candida albicans ATCC 10231, Candida albicans ATCC 90028, Candida parapsilosis ATCC 22019). Hospital methicillin-resistant strains of Staphylococcus aureus and Staphylococcus epidermidis were obtained from the collection of the Department of Pharmaceutical Microbiology, Medical University of Warsaw, Poland.
Antifungal activities were assessed using Mueller–Hinton agar + 2% glucose and 0.5 µg/mL methylene blue dye medium. Sterile filter paper discs (9 mm diameter, Whatman Number 3 chromatography paper) were dripped with tested compound solutions (in dimethylsulfoxide, DMSO) to load 400 μg of a given compound per disc. Dry discs were placed on the surface of appropriate agar medium. The results (diameter of the growth inhibition zone) were read after 18 h of incubation at 35 °C. Minimal inhibitory concentration (MIC) was tested by the twofold serial microdilution method (in 96-well microtiter plates) using Mueller–Hinton broth medium (Beckton Dickinson) for bacteria or RPMI-1640 medium for Candida species, according to CLSI guidelines. The stock solution of tested agent was prepared in DMSO and diluted in sterile water. […] The final inoculum of all studied microorganisms was 10^5 CFU/ mL^−1 (colony forming units per ml). Minimal inhibitory concentrations (the lowest concentration of a tested agent that prevents visible growth of a microorganism) were read after 18 h (bacteria) or 24 h (yeasts) of incubation at 35 °C.

[2] = tested on: Superoxide dismutase [Mn], mitochondrial (SODM_HUMAN); assay: LC–MS proteome analysis, SODM; type: cell-based, Homo sapiens; details: IC50 concentration, % of control
Protocol: (§1) Enzymes involved in oxidoreductive potential were analyzed in the cell lysates obtained after treatment cells with selected conjugates for 24 h. Cells were washed with phosphate-buffered saline (PBS) and harvested, then centrifuged at 1000× g for 10 min. Then, lysis buffer (containing protease inhibitor, 1% RIPA Lysis and Extraction Buffer (ThermoFisher)) and cold PBS were added, and samples were sonicated three times in ice bath. Next, the cell lysates were centrifuged at 14,000× g at 4 °C for 15 min, and then supernatants were stored at […] before use. Protein concentration was measured by the Bradford method.
(§2) Normalized protein concentrations (5 µg) from cell lysate were precipitated by ice cold (–20 °C) acetonitrile (ACN, Merck, in ratio 1:4). Then, samples were centrifuged (–9 °C, 30 min., 18,000× g), the supernatant was discarded and ACN excess was evaporated using a vacuum centrifuge (5 min., room temp.). Protein pellet was dissolved in 40 mM ammonium bicarbonate. An amount of 500 mM dithiothreitol (DTT, with final concentration 20 mM) and 1 M iodoacetamide (IAA, with final concentration 40 mM) were used for reduction and alkylation processes. After 16 h of incubation in 37 °C with Trypsin Gold (Promega), digested protein samples were diluted with 0.1% formic acid (ThermoFisher) and centrifuged (+2 °C, 30 min, 18,000× g).
(§3) LC–MS analysis was carried out with the use of nanoUHPLC (nanoElute, Bruker) coupled by CaptiveSpray (Bruker) to ESI-Q-TOF mass spectrometer (Compact, Bruker). Two-column separation method was used, i.e., pre-column (300 µm × 5 mm, C18 PepMap 100, 5 µm, 100Å, Thermo Scientific) and Aurora separation column with CSI fitting (75 µm × 250 mm, C18 1.6 µm) in gradient 2% B to 35% B in 90 min with the 300 nL/min flow rate. Mobile phases (A) 0.1% formic acid in water and (B) 0.1% formic acid in ACN were used.
(§4) Sample ionizations were performed at a gas flow of 3.0 L/min, temperature of 150 °C and voltage of the capillary at 1600 V. The quadrupole energy was fixed to 5.0 eV and collision chamber energy 7.0 eV, with an ion transfer time of 90 µs. The ions were analyzed in the positive polarity mode in the range 150–2200 m/z, with the acquisition frequency of the 1 Hz spectrum, as well as with the autoMS/MS system.
(§5) The collected spectra were analyzed and calibrated using DataAnalysis software (Bruker) and then identified in ProteinScape (Bruker) by the MASCOT server. Protein identification was conducted using the online SwissProt and NCBIprot databases, and their references and biological significance were identified using Reactome.org, String.org and KEGG.

[3] = tested on: Peroxiredoxin-6 (PRDX6_HUMAN); assay: LC–MS proteome analysis, PRDX6; type: cell-based, Homo sapiens; details: IC50 concentration, % of control
Protocol: as §1, §2, §3, §4, §5

[4] = tested on: Peroxiredoxin-5, mitochondrial (PRDX5_HUMAN); assay: LC–MS proteome analysis, PRDX5; type: cell-based, Homo sapiens; details: IC50 concentration, % of control
Protocol: as §1, §2, §3, §4, §5

[5] = tested on: Glutathione S-transferase P (GSTP1_HUMAN); assay: LC–MS proteome analysis, GSTP1; type: cell-based, Homo sapiens; details: IC50 concentration, % of control
Protocol: as §1, §2, §3, §4, §5

SW480 cells = assay: Annexin V-FITC/PI flow cytometry, SW480; type: cell-based, human; details: SW480, IC50 dose, 72 h
Protocol: The cells were cultured and harvested under the conditions described in the cell culture section. […] The effect of these compounds on the process of early and late apoptosis and necrosis was determined, as described previously, by dual staining with annexin V-FITC and propidium iodide according to manufacturer’s protocol (Becton Dickinson). The cells that were annexin V-FITC positive and PI-negative were identified as early apoptotic and annexin V-FITC and PI-positive as late apoptotic or necrotic.

O=[N+]([O-])c1cc([N+]2=C(Nc3ccc(Br)cc3)[S][Cu-2]23[S]C(Nc2ccc(Br)cc2)=[N+]3c2ccc(Cl)c([N+](=O)[O-])c2)ccc1Cl [Compound 3, Copper (II) complex with 1-(4-bromophenyl)-3-(4-chloro-3-nitrophenyl)thiourea]
MIC [1]: 4 µg/mL
Protein Intensity, % (SODM) ([2]; PC3, 24 h): 31.2%
Protein Intensity, % (SODM) ([2]; SW480, 24 h): 77.7%
Protein Intensity, % (SODM) ([2]; SW620, 24 h): 77.1%
Protein Intensity, % (PRDX6) ([3]; PC3, 24 h): 71.1%
Protein Intensity, % (PRDX6) ([3]; SW480, 24 h): 81.3%
Protein Intensity, % (PRDX6) ([3]; SW620, 24 h): 66.4%
Protein Intensity, % (PRDX5) ([4]; PC3, 24 h): 40.9%
Protein Intensity, % (PRDX5) ([4]; SW480, 24 h): 84.8%
Protein Intensity, % (PRDX5) ([4]; SW620, 24 h): 82.4%
Protein Intensity, % (GSTP1) ([5]; PC3, 24 h): 51.1%
Protein Intensity, % (GSTP1) ([5]; SW480, 24 h): 75.9%
Protein Intensity, % (GSTP1) ([5]; SW620, 24 h): 64.5%
early apoptosis, % of cells (SW480 cells): ≤ 40%

From article PMC8584173, “The Cytotoxic Effect of Copper (II) Complexes with Halogenated 1,3-Disubstituted Arylthioureas on Cancer and Bacterial Cells” (International Journal of Molecular Sciences, 2021)
